Results taken from patent EP0638309A1, “Substances inhibiting proteic adp ribosilation suitable to prevent the diabetes mellitus complications” (ISTITUTO BIOCHIMICO ITALIANO GIOVANNI LORENZINI S.p.A., priority 1993, dated 1995).

Assays:
[1] = test system: substance P axonal transport; test: Substance P axonal transport in ligated sciatic nerve of alloxan-diabetic rats; assay type: in vivo; conditions: for substance P content, NSc: contralateral non-ligated sciatic nerve; for substance P content, NSc / substance P content, D / substance P content, P2 / substance P content, P1: ± ES; for substance P content, D: distal segment; for substance P content, P1: proximal segment contiguous to ligature; for anterograde and retrograde accumulation of substance P, in words: 10 mg/kg daily
Excerpt: The effectiveness verification of the substances inhibiting proteic ADP-ribosilation in preventing the diabetes mellitus complications has been carried out in vivo on rats in diabetes mellitus models induced by alloxan. With this purpose, […] substance P axonal transport in the five following experimental groups, each consisting of N° 8 rats: • 1) control group; • 2) diabetic rats group; • 3) diabetic rats group treated with vitamin K1 (substance inhibiting the proteic ADP-ribosilation); • 4) diabetic rats group treated with arachidic acid (substance inhibiting the proteic ADP-ribosilation); • 5) diabetic rats group treated with dermatan sulphate (substance non inhibiting proteic ADP-ribosilation).
The Sprague Dawley strain rats used, 250 gr weight, male sex, were supplied by Charles River.
(§1) The diabetes has been induced in the rats of the groups from 2) to 5) by a single subcutaneous injection of 100 mg/kg of alloxan dissolved in pH 4.5 0.1 M citrate-phosphate buffer solution.
The pharmacological treatment of the groups 3) and 5) respectivelly with vitamin K1 and dermatansulphate, has been carried out by intraperitoneal administration of said substances dissolved in physiologic solution at 10 mg/kg dose. […] Groups 1) and 2) have been injected with an equivalent volume of physiologic solution.
(§2) The pharmacological treatment started 7 days after the diabetes induction and prosecuted until the sacrifice with daily administration.
To estimate the axonal transport of substance P the accumulation of the substance P in three segments of sciatic nerve two millimeters long was estimated 24 hours from the ligature of the same nerve.
The operations of the sciatic nerve ligature, of the tissues withdrawal from the same and of substance P extraction from the tissues for the radioimmunologic dosage, have been carried out by the following way.
The animals were anaesthetised by intraperitoneal administration of 35 mg/kg of pentobarbital dissolved in 0.9% physiologic solution. After wright thigh epilation and cutis section the sciatic nerve was exposed at half thigh level (at least 0.8 cm from the popliteal cavity where the nerve ramifies). The ligature has been made by sterile silk thread which has been twice knotted to about half of the exposed nerve portion.
The sacrifice has been accomplished after 8 weeks from the diabetes induction, after 24 hours from the ligature.
Immediately after the sacrifice, in the former operation seat, the removal of the whole sciatic nerve has been made and finally from this the three segments each about 2 mm long have been withdrawn: segment P1 (proximal contiguous to the ligature); segment P2 (immediately above P1) and segment D (distal contiguous to the ligature), as it is shown in fig. 1.
The withdrawn tissues have been placed in polypropylene test-tubes held in ice and containing a volume of acetic acid 1 N in 10:1 ratio with the tissue weight. Then the tissues homogenization has been done by a continuous speed variation homogenizer (Heavy Stirrer, mod. 12) and a polytetrafluoroethylene pestle perfectly adherent to the test-tube walls. After the homogenate aliquots required for the tissue proteins dosage have been withdrawn (0.1 ml) the test-tubes have been immerged in a boiling water bath for 8-10 minutes, for inactivating the peptidases eventually still present in the samples, and then left for about 30 minutes at 4 °C for completely cooling.
The […] obtained by centrifugation of the homogenate at 40.000 x g for 10 minutes, has been lyophilized and the dry residue has been reconstituted in distilled water, stirred by vortex and centrifuged at 40.000 x g for 10 minutes. From the samples so reconstituted the suitable aliquots required for the substance P radioimmunological dosage have been withdrawn. […]

transducin = test: In vitro ADP-ribosilation of retina membrane proteins G from treated diabetic rats (autoradiogram); assay type: in vivo; conditions: retina membrane fraction of diabetic rats treated at 50 mg/kg
Excerpt: A further experimentation on the silybin effect on the ADP-ribosilation of retina proteins G has been carried out. The evaluation of said proteins ribosilability has been performed by the method described by Duman et al. in J. Neurochem. (1991). pages 2124-2132.
For said experimentation the retinas withdrawn from the rats of the groups 1a), 2a) and 3a) used for the experimentation on the substance P axonal transport, were used.
The retinas have been homogenized and subdivided in cellular fractions and the membrane fraction has been selected for the ADP-ribosilation reaction in vitro.
2 which represents the autoradiogram of an electrophoretic gel obtained from said membrane cellular fraction.
Column 1P derives from the retinas of the control group rats, column 2P derives from the retinas of the diabetic rats and column 3P derives from the retinas of the diabetic rats treated with silybin at a 50 mg/kg dose.

5 YSY neuroblastoma [2] = test: Neuritogenesis after retinoic acid in neuroblastoma cells cultured in chronic hyperglucosemia (in vitro diabetic neuropathy model); assay type: cell-based; conditions: substance 10⁻⁵ M; for Percentage of cells with neurits after retinoic acid addition: glucose 30 mM for three weeks
Experimental: A diabetic neuropathy in vitro model has been carried out using neuroblastoma cells cultured in chronic hyperglucosemia conditions. This condition causes the typical diabetes mellitus dismetabolic effects as the polyols (sorbitol) accumulation, the myoinositol reduction and the reduction of the Na pump functionality. […] A. Shahar et al. - Alan R., Liss.
In the groups from 2) to 4) glucose (30 mM) has been added to the culture renewing the culture medium and then adding glucose every 72 hours, during a three weeks period.
In the group 3), at the same time of the glucose, one of the substances inhibiting proteic ADP-ribosilation reported in the table 1 (amount 10⁻⁵ M) has been added.
In the group 4), at the same time of the glucose one of the substances non inhibiting proteic ADP-ribosilation reported in the table 1 (dermatan sulphate and tolrestat) in amount 10⁻⁵ M has been added.
Subsequently retinoic acid (5 x 10⁻⁶ M) has been added to the cultures 1) to 4) for causing the cells neuritogenesis which has been valued by the observation at the optic microscope considering as neurit the cytoplasmatic extension having a length corresponding at least to twice as the diameter of the cell.

5 YSY neuroblastoma [3] = test: Myoinositol metabolism (accumulation and incorporation) in neuroblastoma cells cultured in glucose; assay type: cell-based; conditions: glucose 30 mM, substance 10⁻⁵ M; for Myoinositol Incorporation: fraction linked to the membranes
Experimental: A diabetic neuropathy in vitro model has been carried out using neuroblastoma cells cultured in chronic hyperglucosemia conditions. This condition causes the typical diabetes mellitus dismetabolic effects as the polyols (sorbitol) accumulation, the myoinositol reduction and the reduction of the Na pump functionality. […] et al. - Alan R., Liss. […] In the groups from 2) to 4) glucose (30 mM) has been added to the culture renewing the culture medium and then adding glucose every 72 hours, during a three weeks period. In the group 3), at the same time of the glucose, one of the substances inhibiting proteic ADP-ribosilation reported in the table 1 (amount 10^-5 M) has been added. In the group 4), at the same time of the glucose one of the substances non inhibiting proteic ADP-ribosilation reported in the table 1 (dermatan sulphate and tolrestat) in amount 10^-5 M has been added. On the experimental groups above described also the myoinositol metabolism alteration has been studied which has been valued by the method described by Yorek et al., in "Diabetes", pag. […]

[4] = Body weight and glycemia control in alloxan-diabetic rats; assay type: in vivo; conditions: diabetic animals 8 weeks after the diabetes induction, 10 mg/kg daily; for Glycemia: caudal vein blood before sacrifice
Experimental: The effectiveness verification of the substances inhibiting proteic ADP-ribosilation in preventing the diabetes mellitus complications has been carried out in vivo on rats in diabetes mellitus models induced by alloxan.
as §1
Groups 1) and 2) have been injected with an equivalent volume of physiologic solution.
as §2
The blood samples have been withdrawn at the caudal vein level before the animals sacrifice.

[5] = second experiment, oral 50 mg/kg/die
[6] = 10 mg/kg daily (vitamin K1, dermatansulphate intraperitoneal; arachidic acid oral), 8 weeks after induction
[7] = 24 hours after ligature, 10 mg/kg daily (vitamin K1, dermatansulphate intraperitoneal; arachidic acid oral)
[8] = proximal segment above P1, 24 hours after ligature, 10 mg/kg daily (vitamin K1, dermatansulphate intraperitoneal; arachidic acid oral)

Compound	Myoinositol Incorporation (5 YSY neuroblastoma [3])	Myoinositol Accumulation (5 YSY neuroblastoma [3])	further results
COc1cc(C2Oc3cc([C@H]4Oc5cc(O)cc(O)c5C(=O)[C@@H]4O)ccc3OC2CO)ccc1O (stereo partly drawn) [silybin]	–	–	substance P content, NSc [1, 5]: 2.26±0.040 ng/mg of tissular protein; substance P content, D [1, 5]: 4.05±0.071 ng/mg of tissular protein; substance P content, P2 ([1]; second experiment, proximal segment above P1, oral 50 mg/kg/die): 7.07±0.59 ng/mg of tissular protein; substance P content, P1 [1, 5]: 11.42±0.18 ng/mg of tissular protein; transducin ribosilability, in words (transducin): maintained
vitamin K2 [Vit K2]	0.88 n mol/µg of protein	8.99 n mol/µg of protein	Percentage of cells with neurits after retinoic acid addition (5 YSY neuroblastoma [2]; 3 days in retinoic acid): 45%; Percentage of cells with neurits after retinoic acid addition (5 YSY neuroblastoma [2]; 7 days in retinoic acid): 65%; Percentage of cells with neurits after retinoic acid addition (5 YSY neuroblastoma [2]; 12 days in retinoic acid): 98%
CC/C=C\C/C=C\C/C=C\CCCCCCCC(=O)O [linolenic acid (C18:3-cis-9.12.15), linolenic acid]	0.81 n mol/µg of protein	8.44 n mol/µg of protein	–
O=c1cc(-c2ccccc2)oc2ccccc12 [flavone]	0.67 n mol/µg of protein	6.54 n mol/µg of protein	–
CCCCCCCCCCCCCC(=O)O [myristic acid]	0.85 n mol/µg of protein	8.91 n mol/µg of protein	–
CC1=CC(=O)c2ccccc2C1=O [Vit K3, vitamin K3]	0.85 n mol/µg of protein	8.56 n mol/µg of protein	–
CC(=CCC1=C(C)C(=O)c2ccccc2C1=O)CCCC(C)CCCC(C)CCCC(C)C (stereo not drawn) [Vit K1, vitamin K1]	0.98 n mol/µg of protein	9.66 n mol/µg of protein	anterograde and retrograde accumulation of substance P, in words [1]: normalized; substance P content, NSc [1, 6]: 1.28±0.008 ng/mg of tissular protein; substance P content, D [1, 7]: 1.96±0.08 ng/mg of tissular protein; substance P content, P2 [1, 8]: 2.44±0.09 ng/mg of tissular protein; substance P content, P1 [1, 7]: 8.72±0.16 ng/mg of tissular protein; Body weight [4]: 244±12.6 gr.; Glycemia [4]: 438 ± 6.4 mg/dL
CCCCCCCCCCCCCCCCCCCC(=O)O [arachidic acid]	0.92 n mol/µg of protein	9.02 n mol/µg of protein	anterograde and retrograde accumulation of substance P, in words [1]: normalized; substance P content, NSc [1, 6]: 1.24±0.006 ng/mg of tissular protein; substance P content, D [1, 7]: 1.80±0.06 ng/mg of tissular protein; substance P content, P2 [1, 8]: 1.40±0.05 ng/mg of tissular protein; substance P content, P1 [1, 7]: 9.44±0.14 ng/mg of tissular protein; Body weight [4]: 239±12.6 gr.; Glycemia [4]: 471 ± 9.4 mg/dL
COc1ccc2c(C(=S)N(C)CC(=O)O)cccc2c1C(F)(F)F [tolrestat]	–	–	prevention of the diabetic neuropathy (neuritogenesis), in words (5 YSY neuroblastoma [2]; glucose 30 mM): does not exercise any effect for preventing the diabetic neuropathy
O=C1NC(=O)c2cccc3cccc1c23 [1.8 Naphthalimide, 1.8-naphthalimide]	0.91 n mol/µg of protein	9.20 n mol/µg of protein	–
CCCCCCCCCCCCCCCC(=O)O [palmitic acid]	0.89 n mol/µg of protein	9.39 n mol/µg of protein	–
Nc1ccc2c3c(cccc13)C(=O)NC2=O [4-amino-1.8-naphthalimide]	0.78 n mol/µg of protein	8.01 n mol/µg of protein	–
CCCCC/C=C\C/C=C\CCCCCCCC(=O)O [linoleic acid (C18:2-cis-9.12), linoleic acid]	0.88 n mol/µg of protein	8.66 n mol/µg of protein	–
CO[C@@H]1[C@@H](OC(N)=O)[C@@H](O)[C@H](Oc2ccc3c(O)c(NC(=O)c4ccc(O)c(CC=C(C)C)c4)c(=O)oc3c2C)OC1(C)C [novobiocin]	0.60 n mol/µg of protein	6.0 n mol/µg of protein	–
O=c1[nH]c2ccc([N+](=O)[O-])cc2c2ccccc12 [2-nitro-(6(5H)-phenanthridinone, 2-nitro-6(5H)-phenanthridinone]	0.81 n mol/µg of protein	8.51 n mol/µg of protein	–
CCCCCCCCCCCCCCCCCC(=O)O [stearic acid]	0.95 n mol/µg of protein	9.89 n mol/µg of protein	–
